Results published in patent publication US20040260071A1, “Benzophene-linked crf and crf-like peptides for covalent labeling of corticotropin-releasing factor crf binding protein” (priority 2001, published 2004).
Where “and” joins values, the source holds several entries; their conditions need not be identical. Identical values can stand only once. Each block holds one compound with its values, some of them ahead of it. Non-standard residues stand in square brackets, D forms with d. Residues, ends and D or L forms follow the SMILES beside them. No end group written: not given here. *: point of attachment. Benzoyl(4-benzoyl) = O=C(c1ccccc1)c1ccc(C(=O)*)cc1; Bpa = N[C@@H](Cc1ccc(C(=O)c2ccccc2)cc1)C(=O)O

Assays:
[1] = biological target: T1, rCRFBP (Rattus norvegicus, UniProt P24388); assay: Scintillation proximity assay with [125I-Tyr0]h/rCRF as radioligand, binding to rCRFBP; conditions: for IC50: Example 8, 95% CI given alongside, read-out: IC50 (affinity to rCRFBP)
T1 construct: made in house; host or cells: HEK 293 cells, stably transfected (pcDNA3); serum-free conditioned medium used directly
T1 sequence (P24388 25-322): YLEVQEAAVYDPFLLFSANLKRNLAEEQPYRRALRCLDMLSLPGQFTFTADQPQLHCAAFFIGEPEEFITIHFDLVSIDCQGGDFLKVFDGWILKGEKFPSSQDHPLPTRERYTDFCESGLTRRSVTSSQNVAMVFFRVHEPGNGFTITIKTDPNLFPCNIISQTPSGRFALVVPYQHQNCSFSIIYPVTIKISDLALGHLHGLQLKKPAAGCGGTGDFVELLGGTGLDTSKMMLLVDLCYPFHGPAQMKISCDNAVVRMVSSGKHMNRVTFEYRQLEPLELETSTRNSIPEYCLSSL
Source text: Recombinant rCRFBP containing a C-terminal His-tag was produced in human embryonic kidney (HEK) 293 cells under serum-free conditions (45).

[2] = biological target: T1, rCRFBP; assay: Radioligand binding assay (charcoal precipitation, 3H-rUcn) for affinity to rCRFBP; conditions: for Ki: mean ± S.E.M. of three independent experiments in duplicate, 3H-rUcn radioligand, Cheng-Prusoff, read-out: Inhibition constants (Kl)
Protocol: The peptides were tested for their affinity to rCRFBP on the basis of a charcoal precipitation assay utilizing tritiated Ucn as radioligand (21). […] Siliconized microreaction vials (Sigma, Deisenhofen, Germany) were used to prevent binding of peptides to plastic surfaces. Competition binding experiments were performed by employing 0 to maximally 3 μM unlabeled competitor. The applied concentration range depended on the expected order of magnitude of ligand affinity. After 2 hours of incubation at room temperature, unbound ligand was precipitated by the addition of 100 μl precipitation buffer (binding buffer+10% w/v activated charcoal+2% BSA). The suspension was mixed vigorously and the adsorption was allowed to proceed for 2 min at room temperature. After centrifugation for 2 min at 12000×g, 200 μl supernatant was removed, mixed with 2 ml Ecolume liquid scintillation cocktail (ICN Biomedicals, Irvine, Calif.), and counted for 3 min in a Wallac 1209 Rackbeta liquid scintillation counter (Wallac, Turku, Finland). All assays were performed in duplicate and repeated at least three times. Binding data were analyzed using the Prism computer program (GraphPad Software, San Diego, Calif.).

[3] = biological target: T1, rCRFBP; assay: Photoaffinity labeling of rCRFBP (photoadduct formation); assay type: biochemical; conditions: for Photoadduct yield determined by immunoblotting: comparison of photoprobes (FIG. 6)
Protocol: 1 nM CRFBP was incubated with a 100 fold molar excess of photoactivatable ligand for 1 hour at room temperature. […] The irradiation was carried out with UV-light of wavelenghts greater than 300 nm in an ice bath.
rCRFBP (approximate final concentration 10 nM) was incubated with 100 nM of the photoactivatable peptide according to the conditions of the radioligand binding assay. Medium from stably transfected HEK 293 cells was directly used as source for rCRFBP. Irradiation of the benzophenone photoprobes was carried out at 0° C. with a self-constructed photoreaction device incorporating a 400 W halogen metal vapor lamp (Ultratech, Osram, Germany). This lamp provides a wide spectrum of emission at wavelenghts above 250 nm with a maximum at 370 nm which is consistent with the activation wavelenght (350-360 nm) for benzophenone derivatives (13). Protein-damaging wavelenghts below 300 nm were avoided by the use of a filter screen consisting of the optical glass type B 270 (Schoft, Mainz, Germany). The aryldiazirine photoprobe was irradiated as described (14) using a commercially available stratalinker device.
Unless otherwise stated, activation was carried out for 30 min at 0° C. with an Ultratech 400 W halogen metal vapor lamp (Osram). Protein-damaging wavelenghts below 300 nm were filtered with a B270 glass screen (Schott). Unlabeled rCRFBP and the photoadduct were co-purified by adsorption to a nickel-chelate matrix under denaturing conditions. The eluted fraction was analyzed by SDS PAGE (45) (9% polyacrylamide gels) and by reversed-phase HPLC coupled on-line to mass spectrometry (HPLC-MS) on a Vydac C4 column (0.3×150 mm; LC Packings).

[4] = biological target: T2, CRFBP (Rattus norvegicus, UniProt P24388); conditions: relative to Svg; cited from earlier work
T2 sequence (P24388 25-322): T1 sequence (P24388 25-322)

[5] = photoprobe pBB-rUcn, competitor in ten-fold excess (FIG. 5)
[6] = photoprobes 100 nM, competitor 1 μM (FIG. 12a)

Compound: CC[C@H](C)[C@H](NC(=O)c1ccc(C(=O)c2ccccc2)cc1)C(=O)N[C@@H](CO)C(=O)N[C@@H](CC(C)C)C(=O)N[C@@H](CC(=O)O)C(=O)N[C@@H](CC(C)C)C(=O)N[C@H](C(=O)N[C@@H](Cc1ccccc1)C(=O)N[C@@H](Cc1c[nH]cn1)C(=O)N[C@@H](CC(C)C)C(=O)N[C@@H](CC(C)C)C(=O)N[C@@H](CCCNC(=N)N)C(=O)N[C@@H](CCC(=O)O)C(=O)N[C@H](C(=O)N[C@@H](CC(C)C)C(=O)N[C@@H](CCC(=O)O)C(=O)N[C@@H](CCSC)C(=O)N[C@@H](C)C(=O)N[C@@H](CCCNC(=N)N)C(=O)N[C@@H](C)C(=O)N[C@@H](CCC(=O)O)C(=O)N[C@@H](CCC(N)=O)C(=O)N[C@@H](CC(C)C)C(=O)N[C@@H](C)C(=O)N[C@@H](CCC(N)=O)C(=O)N[C@@H](CCC(N)=O)C(=O)N[C@@H](C)C(=O)N[C@@H](Cc1ccc(C(=O)c2ccccc2)cc1)C(=O)N[C@@H](CO)C(=O)O)C(C)C)[C@@H](C)O [Compound 15, [pBPhe^32] pBB-h/rCRF^6-33] ({Benzoyl(4-benzoyl)}-ISLDLTFHLLREVLEMARAEQLAQQA[Bpa]S-OH)
IC50 [1]: 14 nM
Decrease of affinity compared to h/rCRF^6-33 ([1]; bifunctional photoprobe): decreased by a factor of seven

Compound: CC[C@H](C)[C@H](NC(=O)[C@H](CO)NC(=O)[C@H](CC(C)C)NC(=O)[C@@H]1CCCN1C(=O)[C@@H]1CCCN1C(=O)[C@H](CC(=O)O)NC(=O)[C@@H](N)CC(=O)O)C(=O)N[C@@H](CC(=O)O)C(=O)N[C@@H](CC(C)C)C(=O)N[C@H](C(=O)N[C@@H](Cc1ccc(C(=O)c2ccccc2)cc1)C(=O)N[C@@H](Cc1c[nH]cn1)C(=O)N[C@@H](CC(C)C)C(=O)N[C@@H](CC(C)C)C(=O)N[C@@H](CCCNC(=N)N)C(=O)N[C@H](C(=O)N[C@@H](CC(C)C)C(=O)N[C@@H](CC(C)C)C(=O)N[C@@H](CCC(=O)O)C(=O)N[C@@H](CC(C)C)C(=O)N[C@@H](C)C(=O)N[C@@H](CCCNC(=N)N)C(=O)N[C@H](C(=O)N[C@@H](CCC(N)=O)C(=O)N[C@@H](CO)C(=O)N[C@@H](CCC(N)=O)C(=O)N[C@@H](CCCNC(=N)N)C(=O)N[C@@H](CCC(=O)O)C(=O)N[C@@H](CCCNC(=N)N)C(=O)N[C@@H](C)C(=O)N[C@@H](CCC(=O)O)C(=O)N[C@@H](CCC(N)=O)C(=O)N[C@@H](CC(N)=O)C(=O)N[C@@H](CCCNC(=N)N)C(=O)N[C@H](C(=O)N[C@H](C(=O)N[C@@H](Cc1ccccc1)C(=O)N[C@@H](CC(=O)O)C(=O)N[C@@H](CO)C(=O)N[C@H](C(N)=O)C(C)C)[C@@H](C)CC)[C@@H](C)CC)[C@@H](C)O)[C@@H](C)O)[C@@H](C)O [Compound 6, pBF^11-rUcn] (H-DDPPLSIDLT[Bpa]HLLRTLLELARTQSQRERAEQNRIIFDSV-NH2; N-terminus assumed)
Ki [2]: 400 ± 35 nM
Decrease of affinity to CRFBP relative to unmodified rUcn ([2]; modification within the central part of the peptide): three orders of magnitude

Compound: CC[C@H](C)[C@H](N)C(=O)N[C@@H](CO)C(=O)N[C@@H](CC(C)C)C(=O)N[C@@H](CC(=O)O)C(=O)N[C@@H](CC(C)C)C(=O)N[C@H](C(=O)N[C@@H](Cc1ccccc1)C(=O)N[C@@H](Cc1c[nH]cn1)C(=O)N[C@@H](CC(C)C)C(=O)N[C@@H](CC(C)C)C(=O)N[C@@H](CCCNC(=N)N)C(=O)N[C@@H](CCC(=O)O)C(=O)N[C@H](C(=O)N[C@@H](CC(C)C)C(=O)N[C@@H](CCC(=O)O)C(=O)N[C@@H](CCSC)C(=O)N[C@@H](C)C(=O)N[C@@H](CCCNC(=N)N)C(=O)N[C@@H](C)C(=O)N[C@@H](CCC(=O)O)C(=O)N[C@@H](CCC(N)=O)C(=O)N[C@@H](CC(C)C)C(=O)N[C@@H](C)C(=O)N[C@@H](CCC(N)=O)C(=O)N[C@@H](CCC(N)=O)C(=O)N[C@@H](C)C(=O)N[C@@H](Cc1ccc(C(=O)c2ccccc2)cc1)C(=O)N[C@@H](CO)C(=O)O)C(C)C)[C@@H](C)O [Compound 14, [pBPhe^32]h/rCRF^6-33] (H-ISLDLTFHLLREVLEMARAEQLAQQA[Bpa]S-OH; N-terminus assumed)
IC50 [1]: 2.1 nM

Ki [2]: 1.1 ± 0.06 nM
Compound: LSIDLTFHLLRTLLELARTQSQRERAEQ-OH [Compound 7, rUcn^5-32, reference compound]

Suppression of photoadduct formation by competitor [3, 5]: suppressed
Compound: rUcn [Compound 1, reference compound]

Compound: [Ala^21]Svg
Increase of affinity to CRFBP by replacement of Glu^21 in Svg by Ala [4]: two orders of magnitude

Compound: CC[C@H](C)[C@H](NC(=O)[C@H](CO)NC(=O)[C@H](CC(C)C)NC(=O)[C@@H]1CCCN1C(=O)[C@@H]1CCCN1C(=O)[C@H](CC(=O)O)NC(=O)[C@H](CC(=O)O)NC(=O)c1ccc(C(=O)c2ccccc2)cc1)C(=O)N[C@@H](CC(=O)O)C(=O)N[C@@H](CC(C)C)C(=O)N[C@H](C(=O)N[C@@H](Cc1ccccc1)C(=O)N[C@@H](Cc1c[nH]cn1)C(=O)N[C@@H](CC(C)C)C(=O)N[C@@H](CC(C)C)C(=O)N[C@@H](CCCNC(=N)N)C(=O)N[C@H](C(=O)N[C@@H](CC(C)C)C(=O)N[C@@H](CC(C)C)C(=O)N[C@@H](CCC(=O)O)C(=O)N[C@@H](CC(C)C)C(=O)N[C@@H](C)C(=O)N[C@@H](CCCNC(=N)N)C(=O)N[C@H](C(=O)N[C@@H](CCC(N)=O)C(=O)N[C@@H](CO)C(=O)N[C@@H](CCC(N)=O)C(=O)N[C@@H](CCCNC(=N)N)C(=O)N[C@@H](CCC(=O)O)C(=O)N[C@@H](CCCNC(=N)N)C(=O)N[C@@H](C)C(=O)N[C@@H](CCC(=O)O)C(=O)N[C@@H](CCC(N)=O)C(=O)N[C@@H](CC(N)=O)C(=O)N[C@@H](CCCNC(=N)N)C(=O)N[C@H](C(=O)N[C@H](C(=O)N[C@@H](Cc1ccccc1)C(=O)N[C@@H](CC(=O)O)C(=O)N[C@@H](CO)C(=O)N[C@H](C(N)=O)C(C)C)[C@@H](C)CC)[C@@H](C)CC)[C@@H](C)O)[C@@H](C)O)[C@@H](C)O [Compound 2, pBB-rUcn]
Ki [2]: < 1 nM and 0.99 nM
Photoadduct yield by integration of the UV trace ([3]; HPLC of affinity purified photoreaction products (FIG. 8)): 60%
Maximal photoadduct yield ([3]; Western blot densitometry, 30 min irradiation with B 270 filter screen (FIG. 4C)): up to 50%
Photoadduct yield determined by immunoblotting [3]: 50%
Photoadduct yield by SDS PAGE silver staining ([3]; preparative scale, nickel-affinity purified (FIG. 7)): 50%

Suppression of photoadduct formation by competitor [3, 5]: not
Suppression of photoadduct formation by competitor [3, 6]: not
Compound: ovine CRF [oCRF, reference compound]

Compound: pBB-h/rCRF [Compound 4]
Photoadduct yield determined by immunoblotting [3]: 50%

Compound: CC[C@H](C)[C@H](NC(=O)[C@H](CO)NC(=O)[C@H](CC(C)C)NC(=O)c1ccc(C(=O)c2ccccc2)cc1)C(=O)N[C@@H](CC(=O)O)C(=O)N[C@@H](CC(C)C)C(=O)N[C@H](C(=O)N[C@@H](Cc1ccccc1)C(=O)N[C@@H](Cc1c[nH]cn1)C(=O)N[C@@H](CC(C)C)C(=O)N[C@@H](CC(C)C)C(=O)N[C@@H](CCCNC(=N)N)C(=O)N[C@H](C(=O)N[C@@H](CC(C)C)C(=O)N[C@@H](CC(C)C)C(=O)N[C@@H](CCC(=O)O)C(=O)N[C@@H](CC(C)C)C(=O)N[C@@H](C)C(=O)N[C@@H](CCCNC(=N)N)C(=O)N[C@H](C(=O)N[C@@H](CCC(N)=O)C(=O)N[C@@H](CO)C(=O)N[C@@H](CCC(N)=O)C(=O)N[C@@H](CCCNC(=N)N)C(=O)N[C@@H](CCC(=O)O)C(=O)N[C@@H](CCCNC(=N)N)C(=O)N[C@@H](C)C(=O)N[C@@H](CCC(=O)O)C(=O)N[C@@H](CCC(N)=O)C(=O)O)[C@@H](C)O)[C@@H](C)O)[C@@H](C)O [Compound 8, pBB-rUcn^5-32] ({Benzoyl(4-benzoyl)}-LSIDLTFHLLRTLLELARTQSQRERAEQ-OH)
Ki [2]: 37 ± 3.5 nM

Suppression of photoadduct formation by competitor [3, 6]: completely suppressed
Compound: H-ISLDLTFHLLREVLEMARAEQLAQQAHS-OH [Compound 9, h/rCRF^6-33, reference compound]

Compound: pBB-h/rCRF^6-33 [Compound 10]
Photoadduct yield at different time points of irradiation ([3]; immunodetection, densitometry (FIG. 12c)): ≤ 65%
